Measured values published in US7741253B2, “Methods and compositions for crosslinking polymers with boronic acids” (Halliburton Energy Services, Inc., priority 2004, dated 2010).

Test: pH titration (method of Wiskur et al.)
Format: physicochemical
Procedure: The exemplary boronic acid crosslinking agent prepared as described above was compared to 1,4-phenylene diboronic acid and boric acid using a pH titration that was performed according to the method of S. L. Wiskur, et al., Org.

## OB(O)c1ccc(B(O)O)cc1 [1,4-phenylene diboronic acid]
NaOH 0 μL
  pH: 3.32
NaOH 1 μL
  pH: 3.47
NaOH 2 μL
  pH: 3.67
NaOH 3 μL
  pH: 4.07
NaOH 4 μL
  pH: 5.66
NaOH 5 μL
  pH: 6.6
NaOH 6 μL
  pH: 6.97
NaOH 7 μL
  pH: 7.18
NaOH 8 μL
  pH: 7.33
NaOH 9 μL
  pH: 7.44
NaOH 10 μL
  pH: 7.53
NaOH 11 μL
  pH: 7.62
NaOH 12 μL
  pH: 7.69
NaOH 13 μL
  pH: 7.76
NaOH 14 μL
  pH: 7.82
NaOH 15 μL
  pH: 7.88
NaOH 16 μL
  pH: 7.94
NaOH 17 μL
  pH: 8
NaOH 18 μL
  pH: 8.05
NaOH 19 μL
  pH: 8.11
NaOH 20 μL
  pH: 8.17
NaOH 21 μL
  pH: 8.21
NaOH 22 μL
  pH: 8.25
NaOH 23 μL
  pH: 8.39
NaOH 24 μL
  pH: 8.46
NaOH 25 μL
  pH: 8.51
NaOH 26 μL
  pH: 8.57
NaOH 27 μL
  pH: 8.64
NaOH 28 μL
  pH: 8.7
NaOH 29 μL
  pH: 8.76
NaOH 30 μL
  pH: 8.82
NaOH 31 μL
  pH: 8.96
NaOH 32 μL
  pH: 9.02
NaOH 33 μL
  pH: 9.09
NaOH 34 μL
  pH: 9.15
NaOH 35 μL
  pH: 9.21
NaOH 36 μL
  pH: 9.26
NaOH 37 μL
  pH: 9.32
NaOH 38 μL
  pH: 9.38
NaOH 39 μL
  pH: 9.43
NaOH 40 μL
  pH: 9.47
NaOH 41 μL
  pH: 9.51
NaOH 42 μL
  pH: 9.56
NaOH 43 μL
  pH: 9.6
NaOH 44 μL
  pH: 9.64
NaOH 45 μL
  pH: 9.68
NaOH 46 μL
  pH: 9.71
NaOH 47 μL
  pH: 9.75
NaOH 48 μL
  pH: 9.79
NaOH 49 μL
  pH: 9.82
NaOH 50 μL
  pH: 9.86
NaOH 51 μL
  pH: 9.89
NaOH 52 μL
  pH: 9.93
NaOH 53 μL
  pH: 9.96
NaOH 54 μL
  pH: 10
NaOH 55 μL
  pH: 10.03
NaOH 56 μL
  pH: 10.06
NaOH 57 μL
  pH: 10.1
NaOH 58 μL
  pH: 10.13
NaOH 59 μL
  pH: 10.16
NaOH 60 μL
  pH: 10.19
NaOH 61 μL
  pH: 10.23
NaOH 62 μL
  pH: 10.26
NaOH 63 μL
  pH: 10.28
NaOH 64 μL
  pH: 10.3
NaOH 65 μL
  pH: 10.33
NaOH 66 μL
  pH: 10.33
NaOH 67 μL
  pH: 10.37
NaOH 68 μL
  pH: 10.39
NaOH 69 μL
  pH: 10.42
NaOH 70 μL
  pH: 10.44
NaOH 71 μL
  pH: 10.47
NaOH 72 μL
  pH: 10.49
NaOH 73 μL
  pH: 10.49
NaOH 74 μL
  pH: 10.53
NaOH 75 μL
  pH: 10.55
NaOH 76 μL
  pH: 10.55
NaOH 77 μL
  pH: 10.57

## OB(O)O [Boric acid]
NaOH 0 μL
  pH: 3.03
NaOH 1 μL
  pH: 3.13
NaOH 2 μL
  pH: 3.25
NaOH 3 μL
  pH: 3.4
NaOH 4 μL
  pH: 3.64
NaOH 5 μL
  pH: 4.06
NaOH 6 μL
  pH: 6.08
NaOH 7 μL
  pH: 7.58
NaOH 8 μL
  pH: 7.91
NaOH 9 μL
  pH: 8.11
NaOH 10 μL
  pH: 8.26
NaOH 11 μL
  pH: 8.39
NaOH 12 μL
  pH: 8.49
NaOH 13 μL
  pH: 8.59
NaOH 14 μL
  pH: 8.67
NaOH 15 μL
  pH: 8.74
NaOH 16 μL
  pH: 8.82
NaOH 17 μL
  pH: 8.89
NaOH 18 μL
  pH: 8.96
NaOH 19 μL
  pH: 9.03
NaOH 20 μL
  pH: 9.1
NaOH 21 μL
  pH: 9.17
NaOH 22 μL
  pH: 9.25
NaOH 23 μL
  pH: 9.31
NaOH 24 μL
  pH: 9.38
NaOH 25 μL
  pH: 9.47
NaOH 26 μL
  pH: 9.55
NaOH 27 μL
  pH: 9.65
NaOH 28 μL
  pH: 9.74
NaOH 29 μL
  pH: 9.85
NaOH 30 μL
  pH: 9.95
NaOH 31 μL
  pH: 10.05
NaOH 32 μL
  pH: 10.13
NaOH 33 μL
  pH: 10.22
NaOH 34 μL
  pH: 10.29
NaOH 35 μL
  pH: 10.35
NaOH 36 μL
  pH: 10.4
NaOH 37 μL
  pH: 10.45
NaOH 38 μL
  pH: 10.49
NaOH 39 μL
  pH: 10.53
NaOH 40 μL
  pH: 10.56
NaOH 41 μL
  pH: 10.59
NaOH 42 μL
  pH: 10.62
NaOH 43 μL
  pH: 10.65
NaOH 44 μL
  pH: 10.68
NaOH 45 μL
  pH: 10.7
NaOH 46 μL
  pH: 10.71
NaOH 47 μL
  pH: 10.75
NaOH 48 μL
  pH: 10.77
NaOH 49 μL
  pH: 10.78
NaOH 50 μL
  pH: 10.78
NaOH 51 μL
  pH: 10.81
NaOH 52 μL
  pH: 10.82
NaOH 53 μL
  pH: 10.82
NaOH 54 μL
  pH: 10.85
NaOH 55 μL
  pH: 10.85
NaOH 56 μL
  pH: 10.87
NaOH 57 μL
  pH: 10.87
NaOH 58 μL
  pH: 10.89
NaOH 59 μL
  pH: 10.89
NaOH 60 μL
  pH: 10.91
NaOH 61 μL
  pH: 10.92
NaOH 62 μL
  pH: 10.92
NaOH 63 μL
  pH: 10.92
NaOH 64 μL
  pH: 10.95
NaOH 65 μL
  pH: 10.95
NaOH 66 μL
  pH: 10.95
NaOH 67 μL
  pH: 10.97
NaOH 68 μL
  pH: 10.97
NaOH 69 μL
  pH: 11
NaOH 70 μL
  pH: 11
NaOH 71 μL
  pH: 11
NaOH 72 μL
  pH: 11
NaOH 73 μL
  pH: 11
NaOH 74 μL
  pH: 11
NaOH 75 μL
  pH: 11.03
NaOH 76 μL
  pH: 11.03
NaOH 77 μL
  pH: 11.03
